The source made the active and inactive calls.
Assays:
Protein Wnt-3a = Protein Wnt-3a (Mus musculus, UniProt P27467); assay: Wnt3a-driven reporter signaling inhibition, dose response, selectivity assay for Gli-SUFU antagonist project, Wnt-LIGHT cells, luminescence (AID 651570); type: functional; conditions: read-out: IC50_Mean;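 further: Wnt-LIGHT reporter cells stimulated with conditioned medium from Wnt3a-producing cells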
[1] = biological target: T1, High affinity choline transporter 1 (Homo sapiens, UniProt Q9GZV3); assay: CHT inhibitors, dose response, cell-based, 5-point CRC, membrane potential dye (AID 504840); type: functional
T1 sequence (Q9GZV3 whole entry): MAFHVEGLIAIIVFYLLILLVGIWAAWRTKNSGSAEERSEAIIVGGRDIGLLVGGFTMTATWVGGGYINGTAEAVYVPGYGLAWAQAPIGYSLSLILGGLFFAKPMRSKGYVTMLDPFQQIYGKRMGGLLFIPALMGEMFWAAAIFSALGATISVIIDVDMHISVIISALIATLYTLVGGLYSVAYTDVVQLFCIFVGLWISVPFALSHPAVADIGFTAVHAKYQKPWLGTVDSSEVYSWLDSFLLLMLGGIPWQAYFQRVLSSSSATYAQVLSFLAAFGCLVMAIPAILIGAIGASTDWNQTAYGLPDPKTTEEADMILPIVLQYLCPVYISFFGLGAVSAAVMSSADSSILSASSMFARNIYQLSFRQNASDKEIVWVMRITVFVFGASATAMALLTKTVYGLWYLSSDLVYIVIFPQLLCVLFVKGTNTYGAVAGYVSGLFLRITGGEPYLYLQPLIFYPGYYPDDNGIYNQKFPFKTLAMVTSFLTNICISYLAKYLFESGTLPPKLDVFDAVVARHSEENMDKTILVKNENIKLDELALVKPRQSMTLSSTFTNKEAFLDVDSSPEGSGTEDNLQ

Protein skinhead-1 = biological target: T2, Protein skinhead-1 (Caenorhabditis elegans, UniProt P34707); type: functional
T2 sequence (P34707 whole entry): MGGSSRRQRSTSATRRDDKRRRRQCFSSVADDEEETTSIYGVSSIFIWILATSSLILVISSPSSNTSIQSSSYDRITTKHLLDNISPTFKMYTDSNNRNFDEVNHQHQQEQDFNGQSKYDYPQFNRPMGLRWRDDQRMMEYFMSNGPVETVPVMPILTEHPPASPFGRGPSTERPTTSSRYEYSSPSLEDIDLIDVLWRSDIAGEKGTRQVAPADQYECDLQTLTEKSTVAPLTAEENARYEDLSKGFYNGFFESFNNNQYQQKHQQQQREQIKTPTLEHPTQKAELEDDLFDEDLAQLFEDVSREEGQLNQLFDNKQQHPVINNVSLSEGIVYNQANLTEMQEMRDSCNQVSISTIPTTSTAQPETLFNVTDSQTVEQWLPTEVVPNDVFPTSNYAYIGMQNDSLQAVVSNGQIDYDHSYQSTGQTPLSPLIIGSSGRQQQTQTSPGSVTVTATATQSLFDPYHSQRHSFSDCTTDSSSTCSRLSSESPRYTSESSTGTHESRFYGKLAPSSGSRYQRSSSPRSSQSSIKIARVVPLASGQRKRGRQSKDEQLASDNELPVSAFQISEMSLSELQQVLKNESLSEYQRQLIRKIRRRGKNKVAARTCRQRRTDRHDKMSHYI

[2] = NIH-3T3 fibroblast cytotoxicity, dose response, cytotoxicity control, cell-based, fluorescence, Alamar Blue, secondary assay (AID 2327); type: functional;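 further: NIH-3T3 mouse fibroblasts cultured with fluconazole at 8 µg/mL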
[3] = C. albicans growth with fluconazole, confirmation, fluorescence, retest (AID 2467); type: functional, cell-based
cells [4] = type: functional
[5] = biological target: T3, Rac GTPase-activating protein 1 (Homo sapiens, UniProt Q9H0H5); assay: MgcRacGAP GTPase-activating activity inhibitors, confirmation, biochemical, ADP Hunter fluorescence, primary and confirmatory (AID 624330); type: functional
T3 sequence (Q9H0H5 whole entry): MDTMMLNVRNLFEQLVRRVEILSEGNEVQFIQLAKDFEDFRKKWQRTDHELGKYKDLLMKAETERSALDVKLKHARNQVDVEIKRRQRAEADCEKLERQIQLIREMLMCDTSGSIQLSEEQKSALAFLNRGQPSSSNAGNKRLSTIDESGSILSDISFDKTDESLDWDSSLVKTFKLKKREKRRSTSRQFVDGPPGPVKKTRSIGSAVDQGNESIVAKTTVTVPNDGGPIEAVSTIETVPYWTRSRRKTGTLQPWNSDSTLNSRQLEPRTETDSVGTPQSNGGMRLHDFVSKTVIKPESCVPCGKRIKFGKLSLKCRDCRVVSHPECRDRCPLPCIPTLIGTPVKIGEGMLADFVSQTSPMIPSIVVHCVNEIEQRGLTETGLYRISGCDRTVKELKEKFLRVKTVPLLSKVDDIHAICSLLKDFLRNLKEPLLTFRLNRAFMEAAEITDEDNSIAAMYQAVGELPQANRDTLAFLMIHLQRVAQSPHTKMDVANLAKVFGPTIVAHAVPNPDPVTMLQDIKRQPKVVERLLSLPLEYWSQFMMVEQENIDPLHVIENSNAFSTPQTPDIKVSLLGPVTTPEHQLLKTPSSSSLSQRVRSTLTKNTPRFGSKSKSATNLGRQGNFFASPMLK

[6] = HeLa cell cytotoxicity, dose response, cytotoxicity control for MgcRacGAP inhibitor project (AID 624300); type: functional
Vero [7] = assay: cells; type: functional, cell-based; conditions: Chlorocebus sabaeus
[8] = Fluorescence-based cell-based high throughput dose response assay for inhibitors of the interaction of nucleotide-binding oligomerization domain containing 2 (NOD2) and the receptor-interacting serine-threonine kinase 2 (RIPK2).; type: functional; conditions: Homo sapiens
[9] = control 3'UTR Renilla luciferase suppression, dose response, counter-screen for Shn3 inhibitor project, cell-based, Clone20-Shn3RL, cherry-picked (AID 624133); type: functional
INS1 = assay: beta cell apoptosis inhibitors, cytokine rescue, dose response, luminescence, retest (AID 449756); type: functional, cell-based; conditions: Rattus norvegicus;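 further: cell death triggered by IL-1 beta plus TNF-alpha plus IFN-gamma mixture; protective hits raise ATP signal compared with cytokine alone wells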
[10] = HepG2 cell cytotoxicity, dose response, cytotoxicity control for Shn3 inhibitor project, CellTiter-Glo, cherry-picked (AID 624134); type: functional, cell-based
[11] = Shn3 3'UTR reporter inhibitors, dose response, cell-based, Clone20 osteoblasts, firefly luciferase, cherry-picked (AID 624132); type: functional;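 further: firefly luciferase luminescence from reporter carrying the Shn3 3'UTR in osteoblasts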
H4 = assay: Luminescence Cell-Based Dose Response HTS to Identify Activators of 5'UTR Stem-Loop Driven Prion Protein mRNA Translation in H4 Neuroglioblastoma Cells. [Related pubchem assays: 1829 (Project Summary), 1814 (Primary HTS)]; type: functional; conditions: Homo sapiens
[12] = Luminescence Cell-Based Dose Response HTS to Identify Activators of Luciferase Translation or Activity in H4 […] Cells. [Related pubchem assays: 1829 (Project Summary), 1814 (Primary HTS)]; type: functional
BJ [13] = assay: cells; type: functional, cell-based; conditions: Homo sapiens
cells [14] = type: functional, cell-based
BJ [15] = assay: cytotoxicity toward BJ-TERT-LT-ST fibroblasts, dose response, cell-based, RAS-independent, luminescence (AID 1935); type: functional; conditions: Homo sapiens;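 further: BJ fibroblasts immortalized with TERT plus LT and ST oncogenes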
BJ [16] = assay: cytotoxicity toward BJ-TERT fibroblasts, dose response, cell-based, RAS-independent, luminescence (AID 1933); type: functional; conditions: Homo sapiens
[17] = cytotoxicity toward DRD oncogenic fibroblasts, dose response, cell-based, non-viral oncogenic, luminescence (AID 1934); type: functional; conditions: Homo sapiens
cells [18] = type: functional, cell-based; remark: listed apart in the source
[19] = Luminescence Cell-Based Dose Confirmation HTS to Identify Activators of 5'UTR Stem-Loop Driven Alpha-Synuclein mRNA Translation in H4 Neuroglioblastoma Cells. [Related pubchem assays: 1829 (Project Summary), 1814 (Primary HTS)]; type: functional
[20] = biological target: T4, Microphthalmia-associated transcription factor (Homo sapiens, UniProt O75030); assay: TRPM1 promoter luciferase signal decrease, dose response, MITF inhibitor project, cell-based, SK-MEL-5, cherry-picked, set 3 (AID 493073); type: functional
T4 sequence (O75030 whole entry): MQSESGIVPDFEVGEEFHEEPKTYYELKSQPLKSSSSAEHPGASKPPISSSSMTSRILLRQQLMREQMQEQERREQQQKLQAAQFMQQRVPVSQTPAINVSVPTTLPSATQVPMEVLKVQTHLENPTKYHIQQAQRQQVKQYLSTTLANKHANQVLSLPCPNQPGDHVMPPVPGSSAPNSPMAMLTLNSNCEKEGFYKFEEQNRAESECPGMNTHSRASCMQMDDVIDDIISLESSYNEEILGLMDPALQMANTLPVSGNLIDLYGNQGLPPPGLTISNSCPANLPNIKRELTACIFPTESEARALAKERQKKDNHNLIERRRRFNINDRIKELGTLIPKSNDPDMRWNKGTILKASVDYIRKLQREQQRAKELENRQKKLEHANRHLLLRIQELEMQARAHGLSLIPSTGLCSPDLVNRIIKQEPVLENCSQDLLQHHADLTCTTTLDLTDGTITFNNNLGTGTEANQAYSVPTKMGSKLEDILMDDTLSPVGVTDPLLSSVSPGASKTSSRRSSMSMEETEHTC

cells [21] = assay: cells
[22] = HEp-2 cell cytotoxicity, dose response, cytotoxicity control for RSV inhibitor project, HTS (AID 2410); type: functional; conditions: human respiratory syncytial virus
[23] = Counterscreen for activators of the function of SWI/SNF related, matrix associated, actin dependent regulator of chromatin, subfamily a, member 2 (SMARCA2, BRM): Luminescence-based cell-based high throughput dose response assay to identify non-selective compounds using the VP16 reporter assay.; type: functional
[24] = biological target: SWI/SNF-related matrix-associated actin-dependent regulator of chromatin subfamily A member 2 (Homo sapiens, UniProt P51531); assay: Luminescence-based cell-based high throughput dose response assay to identify activators of the function of SWI/SNF related, matrix associated, actin dependent regulator of chromatin, subfamily a, member 2 (SMARCA2, BRM).; type: functional
[25] = biological target: Neurotensin receptor type 1 (Homo sapiens, UniProt P30989); type: functional;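 further: Image-based confirmatory dose-response assay measuring agonist activity at NTR1; NTR1-expressing U2OS osteosarcoma cells imaged for beta-arrestin GFP spot formation; agonist potency where compounds increase beta-arrestin recruitment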
[26] = biological target: Heat shock protein HSP 90-alpha (Homo sapiens, UniProt P07900); type: functional, organism-based
[27] = biological target: T5, Low molecular weight phosphotyrosine protein phosphatase (Homo sapiens, UniProt P24666); type: functional; conditions: read-out: IC50_Mean
T5 sequence (P24666 whole entry): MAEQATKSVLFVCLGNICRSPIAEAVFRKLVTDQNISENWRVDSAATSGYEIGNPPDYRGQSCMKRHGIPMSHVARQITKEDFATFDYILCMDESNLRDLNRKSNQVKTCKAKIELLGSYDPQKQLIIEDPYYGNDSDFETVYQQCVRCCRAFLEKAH

[28] = biological target: T5, Low molecular weight phosphotyrosine protein phosphatase; type: functional; conditions: read-out: IC50_Mean; remark: listed apart in the source
HEK293 = assay: inhibitors of LMP1-driven NF-kB reporter, dose response, cell-based, HEK293, luciferase, cherry-pick (AID 588343); type: functional; conditions: Homo sapiens
Vero [29] = assay: cells; type: functional; conditions: Chlorocebus sabaeus

Sequence of Protein Wnt-3a (P27467 whole entry): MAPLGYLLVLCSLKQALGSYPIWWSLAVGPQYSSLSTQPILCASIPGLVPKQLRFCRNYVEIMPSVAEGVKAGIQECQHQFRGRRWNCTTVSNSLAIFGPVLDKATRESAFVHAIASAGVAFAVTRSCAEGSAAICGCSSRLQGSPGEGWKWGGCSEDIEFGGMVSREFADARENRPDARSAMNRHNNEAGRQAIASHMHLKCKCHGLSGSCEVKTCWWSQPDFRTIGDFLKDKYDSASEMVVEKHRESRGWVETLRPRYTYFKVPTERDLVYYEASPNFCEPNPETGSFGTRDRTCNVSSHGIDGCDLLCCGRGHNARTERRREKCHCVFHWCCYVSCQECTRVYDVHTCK
Sequence of SWI/SNF-related matrix-associated actin-dependent regulator of chromatin subfamily A member 2 (P51531 whole entry): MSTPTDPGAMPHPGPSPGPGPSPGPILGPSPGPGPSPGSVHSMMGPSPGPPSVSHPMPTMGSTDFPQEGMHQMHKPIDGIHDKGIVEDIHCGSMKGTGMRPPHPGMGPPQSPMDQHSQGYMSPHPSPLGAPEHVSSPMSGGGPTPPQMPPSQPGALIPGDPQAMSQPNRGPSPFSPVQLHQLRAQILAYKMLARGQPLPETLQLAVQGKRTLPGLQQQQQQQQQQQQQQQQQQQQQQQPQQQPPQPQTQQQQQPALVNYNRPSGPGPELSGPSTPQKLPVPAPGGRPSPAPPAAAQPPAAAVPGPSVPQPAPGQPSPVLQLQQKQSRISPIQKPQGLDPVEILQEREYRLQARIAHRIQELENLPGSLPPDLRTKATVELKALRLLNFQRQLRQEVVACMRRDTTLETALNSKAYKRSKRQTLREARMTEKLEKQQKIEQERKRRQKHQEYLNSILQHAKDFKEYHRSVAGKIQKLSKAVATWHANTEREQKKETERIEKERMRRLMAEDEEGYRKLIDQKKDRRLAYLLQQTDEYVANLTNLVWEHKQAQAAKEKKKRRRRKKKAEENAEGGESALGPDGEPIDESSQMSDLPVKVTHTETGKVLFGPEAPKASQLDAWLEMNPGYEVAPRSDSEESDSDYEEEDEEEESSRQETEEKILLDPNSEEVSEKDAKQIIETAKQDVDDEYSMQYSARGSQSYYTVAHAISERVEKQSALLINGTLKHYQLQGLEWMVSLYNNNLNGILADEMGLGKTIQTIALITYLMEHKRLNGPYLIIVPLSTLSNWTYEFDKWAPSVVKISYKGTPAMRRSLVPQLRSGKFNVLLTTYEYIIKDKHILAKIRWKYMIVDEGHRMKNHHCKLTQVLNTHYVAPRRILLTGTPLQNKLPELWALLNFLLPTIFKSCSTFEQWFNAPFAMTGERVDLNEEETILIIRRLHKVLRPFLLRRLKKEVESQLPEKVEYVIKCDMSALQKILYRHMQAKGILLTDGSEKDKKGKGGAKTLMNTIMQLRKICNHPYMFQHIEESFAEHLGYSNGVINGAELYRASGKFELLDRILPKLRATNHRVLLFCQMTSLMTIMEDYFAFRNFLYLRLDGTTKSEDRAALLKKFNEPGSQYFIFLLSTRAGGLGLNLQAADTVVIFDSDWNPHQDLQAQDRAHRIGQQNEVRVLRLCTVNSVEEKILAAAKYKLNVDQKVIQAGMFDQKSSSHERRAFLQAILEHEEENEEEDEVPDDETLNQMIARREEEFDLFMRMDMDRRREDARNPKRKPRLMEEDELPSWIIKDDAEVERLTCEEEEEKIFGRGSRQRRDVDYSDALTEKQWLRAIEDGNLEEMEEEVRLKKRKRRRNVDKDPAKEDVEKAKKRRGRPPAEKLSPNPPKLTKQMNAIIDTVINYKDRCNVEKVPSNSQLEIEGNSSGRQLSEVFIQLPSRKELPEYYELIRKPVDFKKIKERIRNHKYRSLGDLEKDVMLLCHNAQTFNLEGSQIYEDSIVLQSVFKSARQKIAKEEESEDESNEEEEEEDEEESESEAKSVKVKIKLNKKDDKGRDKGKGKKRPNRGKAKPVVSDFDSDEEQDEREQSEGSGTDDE
Sequence of Neurotensin receptor type 1 (P30989 whole entry): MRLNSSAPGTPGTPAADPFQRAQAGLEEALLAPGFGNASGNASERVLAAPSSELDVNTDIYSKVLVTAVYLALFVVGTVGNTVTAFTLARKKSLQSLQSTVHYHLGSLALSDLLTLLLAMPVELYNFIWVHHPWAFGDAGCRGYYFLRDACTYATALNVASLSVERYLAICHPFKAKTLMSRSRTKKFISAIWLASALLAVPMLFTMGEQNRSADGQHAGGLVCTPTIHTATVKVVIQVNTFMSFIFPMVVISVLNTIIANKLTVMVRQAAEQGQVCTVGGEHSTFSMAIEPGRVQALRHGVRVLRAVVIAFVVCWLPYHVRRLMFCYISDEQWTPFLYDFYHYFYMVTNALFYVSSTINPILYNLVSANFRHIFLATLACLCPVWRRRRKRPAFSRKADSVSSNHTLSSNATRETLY

## CC1Sc2n(c3ccccc3[n+]2C)N=C1c1ccccc1 (stereo not given)
Protein Wnt-3a
  IC50: 3.6 µM (active)

## O=C(NNC(=S)Nc1ccc(Cl)cc1)c1ccccc1OC(F)F
[1]
  IC50: 13.8 µM (active)

## CN1/C(=C\C(=O)COC(=O)CNC(=O)c2ccc3ccccc3c2)C(C)(C)c2ccccc21
Protein Wnt-3a
  IC50: 50 µM (inactive)
Protein skinhead-1
  IC50: > 100 µM (inactive)

## O=[N+]([O-])c1ccc(Nc2ccccc2)c2nonc12
Protein skinhead-1
  IC50: 41.5 µM (active)
[2]
  EC50: > 150 µM (inconclusive)
[3]
  EC50: < 30 nM (active)
Cells [4]
  IC50: 7.68 µM (active)
[1]
  IC50: 11.8 µM (active)

## Cc1cc(C)c(OCCCCNCc2ccccc2)c(Cl)c1
[5]
  IC50: 91.9 µM (active)
[6]
  CC50: 69.7 µM (active)

## O=C(CCCN1C(=O)/C(=C\c2ccco2)SC1=S)Nc1ccc2ccccc2c1
Vero [7]
  IC50: 8.01 µM (active)

## Cc1ccc(C(=O)C[n+]2cc(Br)cc(Br)c2)cc1
[1]
  IC50: 11.4 µM (active)

## O=C(NCCN1C(=O)S/C(=C\c2ccc(Cl)c([N+](=O)[O-])c2)C1=O)C1=COCCO1
[8]
  IC50: 1.62 µM (active)

## COc1ccc(NS(=O)(=O)c2ccc(N3CCCCC3)c(N)c2)cc1
Protein Wnt-3a
  IC50: 0.102 µM (active)
[9]
  AC50: 1.51 µM (active)
INS1
  AC50: 3.22 µM (active)
[10]
  AC50: 4.01 µM (active)
[11]
  AC50: 824 nM (active)

## Cc1ccc(NC(=O)NCc2ccc3[nH]c(C)cc3c2)cc1
Vero [7]
  IC50: > 25 µM (active)

## COc1cc(/C=C/C(=O)c2ccc3c(c2)OCCO3)cc(Br)c1OCC(=O)N(C)C
H4
  EC50: > 120 µM (not active)
[12]
  EC50: 14.4 µM (active)
BJ [13]
  EC50: 3.4 µM (inconclusive)
Cells [14]
  EC50: > 350 µM (not active)
BJ [15]
  EC50: 5.55 µM (inconclusive)
[9]
  AC50: 8.52 µM (active)
BJ [16]
  EC50: 4.75 µM (active)
[17]
  EC50: 5.43 µM (inconclusive)
[10]
  AC50: 14.2 µM (active)
[11]
  AC50: 2630 nM (active)
Cells [18]
  EC50: > 350 µM (not active)
[19]
  EC50: 5.83 µM (active)
[20]
  AC50: 6.17 µM (active)

## Cc1cccc(C(=O)Nc2ccccc2SCC2CSc3nc4ccccc4c(=O)n32)c1 (stereo not given)
Vero [7]
  IC50: > 25 µM (active)
Cells [21]
  IC50: 19.9 µM (active)
[22]
  CC50: 43 µM (active)

## COc1ccccc1/C=C/C(=O)OCC(=O)Nc1ccc(Cl)cn1
[23]
  EC50: > 91.1 µM (inactive)
[24]
  EC50: > 91.1 µM (inactive)

## COc1ccc(C(C[N+](=O)[O-])n2nc(C)cc2C)cc1 (stereo not given)
[25]
  EC50: 10.1 µM (active)
[26]
  AC50: 1.94 µM (active)
[8]
  IC50: 1.63 µM (active)

## Cc1c(-c2ccccc2)c(-c2ccc(OCCN(C)C)cc2)n2ccccc12
[27]
  IC50: 4.82 µM (active)
[28]
  IC50: 31.3 µM (inactive)

## CC1CC(C)C(=O)C(C(CC2CC(=O)NC(=O)C2)OC(=O)CC(=O)c2ccccc2)C1 (stereo not given)
Vero [7]
  IC50: > 25 µM (active)
HEK293
  AC50: 42.3 µM (active)
Vero [29]
  CC50: 9.24 µM (active)

## CNc1nc(NC)c2c[nH]nc2n1
[27]
  IC50: 9.16 µM (active)
[28]
  IC50: 33 µM (inactive)

## O=C(CNCc1c(F)cccc1F)N1CCC2(CC1)OCCO2
[23]
  EC50: > 91.3 µM (inactive)
[24]
  EC50: > 91.3 µM (inactive)

Reference: ChEMBL document CHEMBL1201862, “PubChem BioAssay data set” (2004)
